Experiments:
Test in all cases: in-line probing
[1] = tested on: 108 yjdF RNA (WT, B. subtilis) (RNA, riboswitch) GGUAUAUGGUAAAGAAUGAAAAAACACGAUUCGGUUGGUAGUCCGGAUGCAUGAUUGAGAAUGUCAGUAACCUUCCCCUCCUCGGGAUGUCCAUCAUUCUUUAAUAUCU; settings: 100 mM KCl, 20 mM MgCl2, 50 mM Tris-HCl pH 8.3, 25 °C
[2] = tested on: 107 yjdF RNA (B. endophyticus) (RNA, riboswitch) GGUAUAUGAAAUGAAAAAACACAAUUCGGUUGGUAGUCCGGAUGCAUCAUAAUAAAUGAAUGUCAGUAGCCUUCCCCUCCUCGGGAUGUCCAUCAUUUCAUAGUAUUUU; settings: 100 mM KCl, 20 mM MgCl2; 50 mM Tris-HCl pH 8.3, 25 °C
[3] = tested on: 108 yjdF M3 (RNA, riboswitch) GGUAUAUGGUAAAGAAUGAAAAAACACGAUUCGGUUGGUCGUCCGGAUGCAUGAUUGAGAAUGUCAGUAACCUUCCCCUCCUCGGGAUGUCCAUCAUUCUUUAAUAUCU; settings: 100 mM KCl, 20 mM MgCl2; 50 mM Tris-HCl pH 8.3, 25 °C
[4] = tested on: 108 yjdF M1 (RNA, riboswitch) GGUAUAUGGUAAACUAUGAAAAAACACGAUUCGGUUGGUAGUCCGGAUGCAUGAUUGAGAAUGUCAGUAACCUUCCCCUCCUCGGGAUGUCCAUCAUUCUUUAAUAUCU; settings: 100 mM KCl, 20 mM MgCl2; 50 mM Tris-HCl pH 8.3, 25 °C; affinity reduced against WT
[5] = tested on: 108 yjdF M2 (RNA, riboswitch) GGUAUAUGGUAAACUAUGAAAAAACACGAUUCGGUUGGUAGUCCGGAUGCAUGAUUGAGAAUGUCAGUAACCUUCCCCUCCUCGGGAUGUCCAUCAUAGUUUAAUAUCU; settings: 100 mM KCl, 20 mM MgCl2; 50 mM Tris-HCl pH 8.3, 25 °C; near WT affinity
[6] = 36-48 h, RNA <5 nM, apparent, 10 µM or poorer
[7] = apparent, unit in unseen head of Table S1

Question: With CC(=O)Oc1ccccc1C(=O)O as the molecule, how does the KD [1, 6] read?
Answer: > 10000 nM

Question: CCn1cc(C(=O)O)c(=O)c2ccc(C)nc21 was tested. Which KD ([1]; 36-48 h, RNA <5 nM, apparent) did it give?
Answer: ~ 1 µM

Question: Which results are given for COc1ccc2c(c[n+](C)c3c4cc5c(cc4ccc23)OCO5)c1OC?
Answer: KD ([1]; 36-48 h, RNA <5 nM, apparent): 2.5 nM; binding [2]: yes

Question: C[C@H](CCC(=O)NCCS(=O)(=O)O)[C@H]1CC[C@H]2[C@@H]3CC[C@@H]4C[C@H](O)CC[C@]4(C)[C@H]3C[C@H](O)[C@]12C was tested. Which KD [1, 7] did it give?
Answer: > 100

Question: C[C@H](CCC(=O)O)[C@H]1CC[C@H]2[C@@H]3CC[C@@H]4C[C@H](O)CC[C@]4(C)[C@H]3C[C@H](O)[C@]12C was tested. Which KD [1, 7] did it give?
Answer: > 100

Question: C[C@H](CCC(=O)O)[C@H]1CC[C@H]2[C@@H]3[C@H](O)C[C@@H]4C[C@H](O)CC[C@]4(C)[C@H]3CC[C@]12C was tested. Which KD [1, 7] did it give?
Answer: > 100

Question: C[n+]1cc2c3c(ccc2c2ccc4cc5c(cc4c21)OCO5)OCO3 was tested. Which KD ([1]; 36-48 h, RNA <5 nM, apparent) did it give?
Answer: 4.2 nM

Question: Which binding ([1]; apparent) does the source give for Cc1cc(N)c2ccccc2[n+]1CCCCCCCCCC[n+]1c(C)cc(N)c2ccccc21 here?
Answer: yes

Question: Which KD ([1]; 36-48 h, RNA <5 nM, apparent) does the source give for Cc1cc2nc3c(=O)[nH]c(=O)nc-3n(C)c2cc1C here?
Answer: 800 nM

Question: Which results are given for Cc1cc2nc3c(=O)[nH]c(=O)nc-3n(C[C@H](O)[C@H](O)[C@H](O)CO)c2cc1C?
Answer: binding ([1]; riboflavin 0-10 µM, weaker than proflavine): yes; binding [3]: no

Question: Which binding ([1]; apparent) does the source give for Cc1nccc2c1[nH]c1ccccc12 here?
Answer: yes

Question: Nc1ccc2cc3ccc(N)cc3nc2c1 was tested. Which KD ([1]; 36-48 h, RNA <5 nM, apparent) did it give?
Answer: 6.1 nM

Question: What about the binding [4] of the same molecule?
Answer: weak

Question: What about the binding [5] of the same molecule?
Answer: yes

Question: What about the binding [3] of the same molecule?
Answer: no

Question: With O=C(O)/C=C/c1ccc(O)c(O)c1 as the molecule, how does the KD [1, 6] read?
Answer: > 10000 nM

Question: O=C(O)/C=C/c1ccccc1 was tested. Which KD [1, 6] did it give?
Answer: > 10000 nM

— article PMC4793209 (2016)
